Experimental findings from patent publication US5814634A, “Alkylenediamine derivative anti-ulcer drug and antibacterial drug” (Shiseido Co. Ltd., priority 1996, dated 1998) are described below.

Data set [1] in a line: in vitro. Particulars: rabbit, gastric mucosal cells.
The subject of data set [2] is stress ulcer. Put plainly: WIS: Restraint and Water Immersion Stress-Induced Ulcer Inhibition Test. Conditions: for WIS: ulcer formation inhibitory rate: 100 mg/kg oral, rats, water immersion stress 7 hours; for effect (anti-ulcer tests): comparison of examples within compound group 1-1. Format: in vivo, rat (male Crj:SD or Slc:SD). On the procedure: WIS: Restraint and Water Immersion Stress-Induced Ulcer Inhibition Test
The degree of inhibition of the stress ulcer formation is tested.
Male Crj:SD or Slc:SD rats (6 to 7-week-old) were fasted overnight, but allowed free access to water. Each group has 5 to 8 of these rats. The sample compound was dissolved or suspended in an aqueous solution of 0.3% sodium carboxymethylcellulose or 0.05% Tween 80 and then was orally administered (100 mg/10 ml/kg). To a control group, the vehicle was administered. 10 minutes later, the rats were placed in a stress cage and immersed to the level of xipfoid process in a water bath (21° C.) for 7 hours. At the end of the stress, the rats were sacrificed by inhalation of ether or carbon dioxide. Then, the stomach of each was removed, inflated by injecting 10 ml of 5% formalin neutral buffer solution, and immersed in 1% formalin neutral buffer solution for 30 minutes or more to be fixed. The stomach was incised along the greater curvature and then the length of each erosion in the glandular portion was determined under dissecting microscope. The sum of the length of erosions per stomach was defined as ulcer index (UI).
The effect obtained when 100 mg/kg of the sample compound had been administered was expressed as ulcer formation inhibitory rate (%) as follows: [formula] VOL, TAO: Acid Secretion Inhibition Test In Vivo i) Meaning

Data set [3] concerns isolated gastric fundic gland. Put plainly: CAP: Acid Secretion Inhibition Test In Vitro ([14C]-aminopyrine uptake). Type of data set: cell-based, rabbit (male Japanese White). Conditions: Oryctolagus cuniculus, 40 min; 10^-5 M compound, 10^-5 M histamine, rabbit isolated gastric fundic gland, 37° C., 40 minutes; read-out: CAP: acid secretion inhibitory rate. The method, then:
With respect to the gastric juice volume (VOL) and the total acid output (TAO), the effects obtained when 100 mg/kg of the sample compound had been administered were expressed as their respective inhibitory rates (%) as follows: [formula] CAP: Acid Secretion Inhibition Test In Vitro i) Meaning
The acid secretion inhibitory activity in a cell level is studied. It can also be used for studying the mechanism of the effect.
ii-a) Preparation of isolated gastric fundus gland suspension
First, an isolated gastric fundic gland sample was prepared. […] Immediately thereafter, the stomach was removed and, after its pyloric and cardiac antrum were severed, incised along its greater curvature into two sheets. The gastric contents adhering to the mucosal surface was washed out with ice-cooled PBS (-) and then carefully washed therein. The gastric wall was spread on a cork board with its mucosal surface facing up and the feed and mucus thereon were completely removed with sterile gauze. The mucosa was separated therefrom by a spatula and then collected in ice-cooled PBS (-). After being washed twice with PBS (-), the mucosa was minced into 2-3 mm^3 pieces by scissors. These pieces were further washed twice with a nutrient solution. The nutrient solution comprises 132.4 mM of NaCl, 5.4 mM of KCl, 5 mM of Na2 HPO4.12H2 O, 1 mM of NaH2 PO4.2H2 O, 1.2 mM of MgSO4, 1 mM of CaCl2, 25 mM of HEPES, 2 mg/ml of glucose, and 1 mg/ml of BSA. Into 70 ml of the nutrient solution containing 1 mg/ml of collagenase, minced mucosal pieces were dispersed and intensely stirred in a conical flask with a stirrer at 37° C. for 40 to 60 minutes. During this period, 100% O2 was sprayed on the nutrient solution surface and the pH was appropriately measured such that it was immediately adjusted to pH 7.4, when the value was therebelow, with a base. The nutrient solution was added to the reaction solution so as to attain the total amount of about 200 ml. After being filtered through a mesh, the suspension was divisionally introduced into 50 ml centrifuge tubes and left for 15 minutes such that gastric fundic gland was deposited. The supernatant was repeatedly removed by an aspirator, dispersed in the nutrient solution, and then left such that the gastric fundic gland was washed three times. At this time, without using a pipette, the suspension was alternately introduced into two centrifuge tubes so as to effect dispersion. The number of cells was counted under microscope and adjusted to 1.6×10^6 cells/ml.
ii-b) [^14 C]-aminopyrine uptake test
Then, [^14 C]-aminopyrine uptake test was performed. After an Eppendorf tube was weighed, 10 μl (final concentration: 10^-5 M) of histamine dissolved in the above-mentioned nutrient solution, 10 μl (final concentration: 10^-5 M) of the test compound dissolved in DMSO, and 10 μl (final concentration: 0.05 μCi/ml) of [^14 C]-aminopyrine diluted with the nutrient solution were introduced therein and then 970 μl of the isolated gastric fundic gland suspension prepared above was added thereto. Subsequently, this mixture was shaken at 37° C. for 40 minutes at 125 cycles/minute. After being centrifuged for 30 minutes, 200 μl of its supernatant was collected into a mini-vial, while the rest was removed by an aspirator. The gland pellet was completely dried as the tube with its lid being opened was kept for one night in a drying oven at 80° C. and then the lid was closed and the weight was determined at room temperature. Then 100 μl of 1N KOH was added thereto and the tube with its lid being closed was treated at 60° C. for 1 to 2 hours so as to dissolve the pellet. Then, the contents thereof were transferred to a mini-vial. Into the mini-vial containing the supernatant or gland pellet, 4 ml of Atomlite™ was added and then the radioactivity was measured by a liquid scintillation counter. […]

`CC(C)=CCOc1ccc(C(=O)NCCN2CCCCC2)cc1` [Example 1]: the cytotoxicity at 4 h, 100 µM in data set [1] came out at 1%. Besides, in data set [2], the “WIS: ulcer formation inhibitory rate” value is reported as 67%.

Regarding `CC(C)=CCC/C(C)=C/COc1ccccc1C(=O)NCCN1CCCCC1` [Example 5], the cytotoxicity at 4 h, 100 µM in data set [1] came out at 21%. For the same compound, the “WIS: ulcer formation inhibitory rate” value in data set [2] worked out at 78%.

Take `CC(C)=CCC/C(C)=C/CSc1ccccc1C(=O)NCCN1CCCCC1` [Example 7]: the “WIS: ulcer formation inhibitory rate” value in data set [2] is listed as 87%. Also, the “effect (anti-ulcer tests)” value in data set [2] (result in words) is recorded as “the effect has been maintained”.

As for `CCN(CCN1CCCCC1)C(=O)c1ccc(OC/C=C(\C)CCC=C(C)C)cc1` [Example 8], the cytotoxicity at 4 h, 100 µM in data set [1] is 41%. In addition, the “WIS: ulcer formation inhibitory rate” value in data set [2] is on record as 67%. Moreover, in data set [2] (result in words), the “effect (anti-ulcer tests)” value is listed as “a sufficient effect can be obtained”. Besides, in data set [3], the inhibition at 10 µM is 100%.

On to `CC(C)=CCC/C(C)=C/COc1ccc(C(=O)NCCN2CCCC(C)(C)C2)cc1` [Example 9], for which the “WIS: ulcer formation inhibitory rate” value in data set [2] came out at 67%. Moreover, in data set [2] (result in words), the “effect (anti-ulcer tests)” value was “a sufficient effect can be obtained”.

As to `CC(C)=CCC/C(C)=C/COc1ccc(C(=O)NCCN2CCCCC2)c(OC/C=C(\C)CCC=C(C)C)c1` [Example 12], the cytotoxicity at 4 h, 100 µM in data set [1] is 38%. Further, in data set [2], the “WIS: ulcer formation inhibitory rate” value is reported as 75%.

In the case of `CC(C)=CCOc1ccc(C(=O)NCCN2CCCCC2)cc1OCC=C(C)C` [Example 15], the cytotoxicity at 4 h, 100 µM in data set [1] came to 17%. For the same compound, in data set [2], the “WIS: ulcer formation inhibitory rate” value came to 89%.

Take `CC(C)=CCOc1ccc(C(=O)NCCN2CCCCC2)c(OCC=C(C)C)c1` [Example 16]: in data set [1], the cytotoxicity at 4 h, 100 µM was 18%. Further, the “WIS: ulcer formation inhibitory rate” value in data set [2] was found to be 59%.

Regarding `CC(C)=CCOc1cc(OCC=C(C)C)cc(C(=O)NCCN2CCCCC2)c1` [Example 18], in data set [1], the cytotoxicity at 4 h, 100 µM worked out at 33%. The “WIS: ulcer formation inhibitory rate” value in data set [2] stood at 40%.

For `COc1cccc(C(=O)NCCN2CCCCC2)c1OC/C=C(\C)CCC=C(C)C` [Example 21], in data set [1], the cytotoxicity at 4 h, 100 µM worked out at 12%. Moreover, the “WIS: ulcer formation inhibitory rate” value in data set [2] was found to be 68%.

Consider `COc1ccc(C(=O)NCCN2CCCCC2)c(OC/C=C(\C)CCC=C(C)C)c1` [Example 22], for which the cytotoxicity at 4 h, 100 µM in data set [1] was 44%. Besides, in data set [2], the “WIS: ulcer formation inhibitory rate” value was determined as 39%.

Consider `COc1cc(C(=O)NCCN2CCCCC2)cc(OC)c1OC/C=C(\C)CCC=C(C)C` [Example 26], for which, in data set [1], the cytotoxicity at 4 h, 100 µM amounted to 17%. The “WIS: ulcer formation inhibitory rate” value in data set [2] was 72%. For the same compound, the anti-ulcer effect result in data set [2] (result in words) is on record as “more anti-ulcer effect”.

Take `CC(C)=CCC/C(C)=C/COc1ccccc1C(=O)NCCN1CCOCC1` [Example 30]: the “WIS: ulcer formation inhibitory rate” value in data set [2] amounted to 68%.

As to `CC(C)=CCC/C(C)=C/CSc1ccccc1C(=O)NCCN1CCOCC1` [Example 33], in data set [1], the cytotoxicity at 4 h, 100 µM came out at 5%. Besides, the “WIS: ulcer formation inhibitory rate” value in data set [2] stood at 49%. The inhibition at 10 µM in data set [3] was 100%.

As to `CC(C)=CCC/C(C)=C/COc1ccc(C(=O)NCCN2CCOCC2)cc1OC/C=C(\C)CCC=C(C)C` [Example 36], in data set [2], the “WIS: ulcer formation inhibitory rate” value turned out to be 39%.

`CC(C)=CCC/C(C)=C/COc1ccc(C(=O)NCCN2CCOCC2)c(OC/C=C(\C)CCC=C(C)C)c1` [Example 37]: the “WIS: ulcer formation inhibitory rate” value in data set [2] turned out to be 71%.

With `CC(C)=CCC/C(C)=C/COc1cc(OC/C=C(\C)CCC=C(C)C)cc(C(=O)NCCN2CCOCC2)c1` [Example 38], the cytotoxicity at 4 h, 100 µM in data set [1] was -12%. Further, in data set [2], the “WIS: ulcer formation inhibitory rate” value came to 55%.

On to `COc1ccc(OC/C=C(\C)CCC=C(C)C)c(C(=O)NCCN2CCOCC2)c1` [Example 40], for which the “WIS: ulcer formation inhibitory rate” value in data set [2] is given as 70%.

In the case of `COc1cc(C(=O)NCCN2CCOCC2)cc(OC)c1OCC=C(C)C` [Example 41], the “WIS: ulcer formation inhibitory rate” value in data set [2] is 39%.

`CCN1CCN(CCNC(=O)c2ccc(OC/C=C(\C)CCC=C(C)C)cc2)CC1` [Example 45]: in data set [1], the cytotoxicity at 4 h, 100 µM amounted to 30%. Besides, the “WIS: ulcer formation inhibitory rate” value in data set [2] was 36%. Besides, the inhibition at 10 µM in data set [3] was 99%.

Regarding `CC(C)=CCC/C(C)=C/COc1ccc(C(=O)NCCN2CCN(CCC(C)C)CC2)cc1` [Example 47], in data set [3], the inhibition at 10 µM was determined as 101%.

As for `CC(C)=CCC/C(C)=C/COc1ccc(C(=O)NCCN2CCN(CC(C)(C)C)CC2)cc1` [Example 48], in data set [3], the inhibition at 10 µM is 100%.

For the compound `CCC(CC)CN1CCN(CCNC(=O)c2ccc(OC/C=C(\C)CCC=C(C)C)cc2)CC1` [Example 49], the inhibition at 10 µM in data set [3] came out at 99.8%.

On to `CCCCN1CCN(CCNC(=O)c2ccc(OC/C=C(\C)CCC=C(C)C)cc2)CC1` [Example 50], for which the inhibition at 10 µM in data set [3] came out at 95.9%.

`CCCCC(CC)CN1CCN(CCNC(=O)c2ccc(OC/C=C(\C)CCC=C(C)C)cc2)CC1` (stereo not shown) [Example 51]: in data set [3], the inhibition at 10 µM stood at 94.8%.

For the compound `CC(C)=CCC/C(C)=C/COc1ccc(C(=O)NCCN2CCN(c3ccccc3)CC2)cc1` [Example 52], in data set [1], the cytotoxicity at 4 h, 100 µM worked out at 11%. For the same compound, the inhibition at 10 µM in data set [3] was determined as 99.1%.

For `COc1ccc(N2CCN(CCNC(=O)c3ccc(OC/C=C(\C)CCC=C(C)C)cc3)CC2)cc1` [Example 53], in data set [1], the cytotoxicity at 4 h, 100 µM came out at 7%. Further, in data set [3], the inhibition at 10 µM came out at 98.7%.

Take `CC(C)=CCC/C(C)=C/COc1ccc(C(=O)NCCN2CCN(CC(=O)NC(C)C)CC2)cc1` [Example 54]: in data set [3], the inhibition at 10 µM was 100%.

Turning to `CC(C)=CCC/C(C)=C/COc1ccc(C(=O)NCCN2CCN(Cc3ccccc3)CC2)cc1` [Example 56], the inhibition at 10 µM in data set [3] was 99.4%.

For `CC(C)=CCC/C(C)=C/COc1ccc(C(=O)NCCN2CCN(Cc3ccc(F)cc3)CC2)cc1` [Example 57], the inhibition at 10 µM in data set [3] amounted to 99.4%.

Turning to `CC(C)=CCC/C(C)=C/COc1ccc(C(=O)NCCN2CCN(Cc3ccc4c(c3)OCO4)CC2)cc1` [Example 58], the “WIS: ulcer formation inhibitory rate” value in data set [2] was 48%. In addition, the inhibition at 10 µM in data set [3] was found to be 100%.

Regarding `CC(C)=CCC/C(C)=C/COc1ccc(C(=O)NCCN2CCN(c3nccs3)CC2)cc1` [Example 60], the cytotoxicity at 4 h, 100 µM in data set [1] stood at 7%. Besides, the inhibition at 10 µM in data set [3] stood at 100%.

In the case of `CC(C)=CCC/C(C)=C/COc1ccc(C(=O)NCCN2CCN(c3ncccn3)CC2)cc1` [Example 61], the cytotoxicity at 4 h, 100 µM in data set [1] was 3%. The inhibition at 10 µM in data set [3] was 100%.
